Test [1] concerns MART-127-35 epitope specific human primary CTL. Put plainly: AICD induction and quantitation in epitope specific primary CTL (tetramer/annexin V FACS). The format is cell-based. The note with it: pre-incubation about 45 min; restimulation with MART-127-35 peptide pulsed T2 cells; kinase inhibitors 25 μM, z-VAD-fmk 100 μM, Fc chimeras 10 μg/ml. As for the experimental part:
FIG. 10. Effect of external death receptor blockade and MAP kinase inhibitors on AICD in the epitope specific CTLs upon secondary encounter of the cognate epitope. The CTLs were pre-incubated at optimal concentration for about 45 min. at about 37° C. with pan caspase inhibitor z-VAD-fmk (100 μM); human Fas/Fc chimera, human TNF-RI/Fc chimera, human TRAIL-RI/Fc chimera, human TRAIL-RII/Fc chimera and human IFN-γ RI/Fc chimeric proteins (10 μg/ml); p38 kinase inhibitor SB203580, JNK inhibitor anthra[1,9-cd]pyrazol-6(2H)-one (SP600125), […] inhibitor PD98059 (25 μM). Then the pretreated as well as untreated CTLs were incubated with T2 cells either alone or loaded with peptide. About 4 hours after secondary exposure cells were stained for determining: (A) Number of tetramer^+ cells out of the CD8^+ T cells [Top panel]; number of tetramer^+/Annexin V^+ and tetramer^+/Annexin^− populations [Bottom panel]. […] (B) Effect of the MAP kinase inhibitors on IFN-γ response by the effector cells.
AICD induction and quantitation. AICD in the human primary CTL primed and expanded specifically for melanoma epitope MART-127-35 was induced by re-exposure of the CTLs to MART-127-35 peptide (1 μg/ml) as reported previously. Staurosporine mediated death was induced by exposure of CTL to 1 μM staurosporine for 4 hr. Quantitation of AICD and the effects of various inhibitors on AICD of CTLs, were carried out by annexin-V staining followed by FACS analyses as reported previously.
In test whether or not the epitope specific primary CTLs undergo AICD, the activated CTLs were exposed to peptide [1 μg/ml] loaded T2 cells (Effector: Target=100) at different time points of the cultures. Thereafter, the evidence of apoptosis was determined by flow cytometry with triple color staining (CD8, MART-127-35/HLA-A2 tetramer and annexin V) at different time points (4-18 h). Experiments were carried out in triplicate wells and significance was calculated by One-way analysis of variance (ANOVA) using Sigma Stat statistical software, Chicago, Ill.
To evaluate the effect of various agents in modulating AICD, the CTLs were pre-incubated with various compounds at optimal concentration for 45 min. at 37° C. and then exposed to T2 cells alone or loaded with peptide.

For test [2], the system named is AIF release in Jurkat cells. In words: AIF release in CD3 induced AICD in Jurkat cells. The format is cell-based, human. The text has this: FIG. 14. Nuclear translocation of AIF and effect of SP600125 on the AIF release and such translocation. The MART-1 epitope specific CTLs generated in the in vitro CTL generation protocol were restimulated by the cognate epitope or a control epitope in the presence or absence of the JNK inhibitor SP600125. (A) Western blot of heavy membrane faction (HM) and cytosolic fraction (S-100) of control CTL (C) and CTLs restimulated by the cognate peptide (M1). As shown, AIF is released in the cytosol of CTLs encountering the cognate peptide without any release of cytochrome c. (B) Effect of SP600125 on AIF release in CD3 induced AICD in Jurkat cells. As shown, AIF is released without cytochrome c release in these cells and SP600125 interferes with the AIF release. (C) Densitometric analysis of the SP600125 effect on AIF release.

Test [3] concerns MART-127-35 epitope specific CTLs. Put plainly: IFN-γ response assay (ELISA). The format is cell-based, human. As for the experimental part: IFN-γ response assay for the effector cells has been described previously. Briefly, the effector cells were co-cultured with the peptide pulsed (1 μg/ml) T2 cells. After 4-16 h, culture supernatants were harvested and IFN-γ was measured by ELISA as per manufacturer's protocol (R & D Systems, MN).

Test [4] deals with Bcl family proteins in CTL. Put plainly: Western blot of Bcl family pro- and anti-apoptotic proteins in CTL after secondary stimulation. It is filed as cell-based, human. How it is done:
FIG. 12. Effect of antigen specific secondary stimulation on mitochondrial transmembrane membrane potential (Δψm), pro- and anti-apoptotic protein and expression of cell surface molecules. (A) Differential effect on membrane polarization in Mart-1 primary CTLs (top panel) vs. Jurkat T cells (bottom panel). CTLs were incubated with T2 cells either alone or loaded with peptide. After overnight secondary exposure cells were stained with Mart-1 tetramer/CD8 and DiOC6. Histogram represents the fluorescence of DiOC6 in the gated antigen specific tetramer^+ population (top panel). Jurkat T cells were also analyzed for modulation of membrane potential after TCR-driven stimulation (bottom panel). Values represent the mean±SD of fluorescence intensity triplicates from one out of three separate experiment. *p<0.001 (One Way ANOVA). […] (C) Expression of different cell surface receptors for survival or death signal in antigen specific population upon secondary stimulation. Values on left upper corner represent the geometric mean of the fluorescence intensity for that particular marker when stimulated with T2/MAGE-3271-279 while that on right upper corner represent the geometric mean of the fluorescence intensity when stimulated with T2/MART-127-35.
Washed cell pellets were lysed in RIPA buffer and a cytosolic fraction was prepared by spinning the lysate at 15,000 rpm. Proteins (20 μg/well) were separated on 15% SDS-PAGE, transferred onto nitrocellulose filters, probed with appropriate antibodies. Antibodies for Bcl-2, phospho Bcl-2, Bim, BCI-XL, Bax, Actin were purchased from Santa-Cruz Biotechnology, Santa-Cruz, Calif. Anti-Mcl-1 antibody was purchased from BD Pharmingen, Palo Alto, Calif. Blots were developed by HRP-tagged secondary antibody (Santa-Cruz Biotechnology, Santa-Cruz, Calif.) using a chemoluminescence kit (Amersham Biosciences, Buckinghamshire, U. K.).

For test [5], the target named is c-jun N-terminal kinase. The note with it: cited from earlier work.

Entries after “also recorded” stand apart in the source; their conditions may differ.

The values below come from US20070003531A1, “Methods for improving immunotherapy by enhancing survival of antigen-specific cytotoxic T lymphocytes” (University of Connecticut, priority 2005, published 2007).

One may read the Ki as a measure of affinity in units of concentration, obtained from inhibition or displacement. Regarding `O=C1c2ccccc2-c2n[nH]c3cccc1c23` [SP600125, anthra[1,9-cd]pyrazol-6(2H)-one], the “protection/rescue of CTL from AICD” value in test [1] is “protected; also recorded: rescued a significant fraction; also recorded: capable of protecting; also recorded: blocked”. The “AIF release in Jurkat cells” value in test [2] is listed as “interferes”. In test [3] (five days continued culture in IL-15 without the inhibitor), the “IFN-γ synthesis by rescued CTLs” value was “regained”. In addition, the “IFN-γ response by CTLs in presence of inhibitor” value in test [3] (peptide pulsed T2 cells, inhibitor 25 μM) is on record as “inhibited; also recorded: negatively regulates”. Moreover, in test [4], the BCI-XL expression entry is “non-selectively up regulated”, the Bcl-2 expression result is reported as “non-selectively up regulated”, the Mcl-1 level entry was “selectively up regulated; also recorded: increased” and the “phosphorylated Bcl-2 level” value is given as “selectively up regulated; also recorded: increased”. The Ki in test [5] is around 190 nM.
